Reference: patent US20210386367A1, “DEVICES AND SYSTEMS FOR GASTROINTESTINAL MICROBIOME DETECTION AND MANIPULATION” (Progenity, Inc., priority 2018, published 2021)
Converted amounts (≈) assume the structure as drawn. Like-named read-outs stand apart in the source and are kept apart here.

Legend:
[1] = test system: Streptococcus spp. (S. pneumoniae ATCC 49619, S. pyogenes ATCC 49399, S. agalactiae ATCC 13813); details: cited from earlier work
[2] = test system: E. coli spontaneous mutants; details: E. coli ATCC 25922; CLSI QC range shown in parentheses; cited from earlier work
[3] = test system: Veillonella spp. clinical isolates; assay: MIC distribution against clinical isolates; assay type: cell-based; details: 30 Veillonella spp. isolates
Text: (n=19 V. parvula, n=9 Veillonella spp., n=1 Veillonella dispr., n=1 V. atypica) clinical isolates (μg/mL).
As used herein, “minimum inhibitory concentration” or “MIC” refers to the lowest concentration of an antimicrobial agent, for example, an antimicrobial agent as described herein, required to inhibit the growth of an organism. […] “MIC90” represents the MIC value at which ≥90% of the strains within a test population are inhibited; the 90th percentile.
Many susceptibility testing methods are known in the art and can be used as described herein (see, e.g., Jorgensen and Ferraro (2009) Clinical Infectious Diseases 49:1749-1755; and Maurer et al. (2017) Infectious Disease Reports 9:6839; the entire contents of each of the foregoing are incorporated herein by reference). For example, antimicrobial susceptibility can be determined using conventional culture based methods such as the broth or agar dilution test. In these dilution tests, the bacterial isolate of interest is inoculated onto different media that include serial dilutions of an antimicrobial agent, and incubated under appropriate conditions (e.g., overnight at 37° C.) to allow for growth to occur. Following the incubation period, the media is examined to determine bacterial growth. The lowest concentration of antibiotic that prevents growth represents the minimal inhibitory concentration (MIC). Broth dilution tests can be miniaturized and mechanized allowing for reproducibility and high throughput.

[4] = test system: E. coli ATCC 25922; assay: Time-kill assay; assay type: cell-based, Escherichia coli; details: 2×, 4×, 8× MIC; 2, 6, 24 hr
[5] = test system: Bacteroides fragilis clinical isolates; assay: MIC distribution against clinical isolates; assay type: cell-based; details: 30 B. fragilis isolates
Outline: (§1)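 MIC is the lowest agent concentration preventing growth, determined by broth or agar dilution with serial compound dilutions and incubation under appropriate conditions (e.g., overnight at 37° C.). MIC90 is the concentration inhibiting ≥90% of isolates in the test population.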

[6] = test system: Streptococcus agalactiae clinical isolates; assay: MIC distribution against clinical isolates; assay type: cell-based; details: 20 S. agalactiae isolates
Outline: as §1

[7] = test system: S. pneumoniae ATCC 49619; assay: Broth microdilution MIC (time-kill study); assay type: cell-based, Streptococcus pneumoniae
[8] = test system: B. fragilis ATCC 25285; details: B. fragilis MMX 123 ATCC 25285; cited from earlier work
[9] = test system: Bacteroides spp. spontaneous mutants; details: B. fragilis ATCC 25285; CLSI QC range shown in parentheses; cited from earlier work
[10] = in vivo, po; cited from earlier work
[11] = test system: Bacteroides spp.; assay: Spontaneous mutation frequency assay; assay type: cell-based
Method: Initial values of the MIC were determined by agar dilution in accordance with guidelines from the Clinical and Laboratory Standards Institute (CLSI; (1) “Methods for Dilution Antimicrobial Susceptibility Tests for Bacteria That Grow Aerobically; Approved Standard; 11th ed.,” CLSI standard M07, 2018; (2) “Methods for Antimicrobial Susceptibility Testing of Anaerobic Bacteria; Approved Standard—Eighth Edition,” CLSI document M11-A8, 2012.).
The agar plates were prepared by mixing a ratio of 1.0 mL of concentrated drug to 49.0 mL of the appropriate molten (47° C.) agar; the drug-supplemented agar was mixed, poured into 15-by-150 mm petri dishes and allowed to solidify and dry at room temperature prior to inoculation. […] Each plate was allowed to cool at room temperature for at least 1 hr.
The isolates were streaked onto the appropriate agar medium and incubated for 20 hr (aerobes) or 48 hr (Bacteroides under anaerobic conditions). Using a sterile swab, several well-isolated colonies were removed and resuspended in sterile saline at a heavy cell density. Each plate was inoculated with 0.5 mL of the cell suspension (each test concentration was inoculated in duplicate). The target inoculum for each spontaneous mutation plate was 10^9-10 CFU. In addition, a portion of the inoculum from each isolate was enumerated by making dilutions, spreading on agar and counting colonies.
Once the inoculum was absorbed into the agar, the plates were incubated at 35° C. Aerobes were examined at 24 and 48 hr, and resulting colonies were counted. Bacteroides were incubated anaerobically for 48-72 hr in the anaerobe chamber and colonies were counted.
Colony counts from plates used to enumerate the initial inoculum density and from the resulting spontaneous mutation frequency test plates were determined. The inoculum size was calculated as CFU inoculated per plate. The spontaneous mutation frequency was calculated using the counts from duplicate spontaneous mutation assay test plates as follows:
If there were no colonies on the antibiotic selection plates, the spontaneous mutation frequency was reported as less than the frequency observed with one colony to indicate that the spontaneous mutation frequency was less than the limit of detection (one CFU). […] The mutation prevention concentration (MPC) was reported as the lowest concentration for which no mutants were selected.

[12] = test system: E. coli (ATCC 25922, ATCC 35218, MMX 1312); details: cited from earlier work
[13] = test system: B. ovatus MMX 3503; assay: Time-kill assay; assay type: cell-based, Bacteroides ovatus; details: 2×, 4×, 8× MIC; 2, 6, 24, 48 hr
[14] = test system: E. coli ATCC 25922; details: cited from earlier work

For C[C@@H](O)[C@H]1C(=O)N2C(C(=O)O)=C(S[C@@H]3CN[C@H](C(=O)N(C)C)C3)[C@H](C)[C@H]12 [meropenem], the “CLSI QC range (agar MIC)” value [1] is given as 0.03 to 0.25 µg/mL, the “MIC, CLSI QC range” value [2] is given as “(0.008-0.06) μg/mL” and the “Cumulative percentage of isolates inhibited at MIC” value ([3]; MIC 0.5 μg/mL) is given as 43.3%. The “Number of test isolates at MIC” value ([3]; MIC 0.5 μg/mL) was 2, the “Cumulative percentage of isolates inhibited at MIC” value ([3]; MIC 1 μg/mL) was 53.3% and the “Number of test isolates at MIC” value ([3]; MIC 1 μg/mL) was 3. The “Cumulative percentage of isolates inhibited at MIC” value ([3]; MIC 2 μg/mL) was 70.0%, the “Number of test isolates at MIC” value ([3]; MIC 2 μg/mL) was 5 and the “Cumulative percentage of isolates inhibited at MIC” value ([3]; MIC 4 μg/mL) was 76.7%. For the same molecule, the “Number of test isolates at MIC” value ([3]; MIC 4 μg/mL) was 2, the “Cumulative percentage of isolates inhibited at MIC” value ([3]; MIC 8 μg/mL) was 100.0% and the “Number of test isolates at MIC” value ([3]; MIC 8 μg/mL) was 7. The “time-kill kinetics outcome (bactericidal = ≥3 log reduction in CFU per mL)” value [4] was “rapid killing and bactericidal activity at the two higher concentrations at 24 hr”, the “Cumulative percentage of isolates inhibited at MIC” value ([5]; MIC 1 μg/mL) was 80.0% and the “Number of test isolates at MIC” value ([5]; MIC 1 μg/mL) was 4. The “Cumulative percentage of isolates inhibited at MIC” value ([5]; MIC 8 μg/mL) was 83.3%, the “Number of test isolates at MIC” value ([5]; MIC 8 μg/mL) was 1 and the “Cumulative percentage of isolates inhibited at MIC” value ([5]; MIC >8 μg/mL) was 100.0%. For the same molecule, the “Number of test isolates at MIC” value ([5]; MIC >8 μg/mL) was 5, the “Cumulative percentage of isolates inhibited at MIC” value ([6]; MIC 0.015 μg/mL) was 20.0% and the “Number of test isolates at MIC” value ([6]; MIC 0.015 μg/mL) was 4. The “Cumulative percentage of isolates inhibited at MIC” value ([6]; MIC 0.03 μg/mL) was 95.0%, the “Number of test isolates at MIC” value ([6]; MIC 0.03 μg/mL) was 15 and the “Cumulative percentage of isolates inhibited at MIC” value ([6]; MIC 0.06 μg/mL) was 100.0%. The “Number of test isolates at MIC” value ([6]; MIC 0.06 μg/mL) was 1, the MIC ([7]; S. pneumoniae ATCC 49619) was 0.06 µg/mL (≈ 0.156 µM) and the MIC ([7]; Streptococcus pneumoniae, ATCC49619, broth microdilution, read-out: MIC) was 0.06 µg/mL (≈ 0.156 µM). For the same molecule, the “CLSI QC range (MIC)” value [8] was “(0.03-0.25)^1 μg/mL”, the “MIC, CLSI QC range” value [9] was “(0.03-0.25)^1 μg/mL” and the “Rat oral exposure (Dose)” value [10] was ~4%. The “colonies on selection plates” value [11] was “No Streptococcus spp. or Bacteroides spp. colonies were selected”, the “CLSI QC range (agar MIC)” value [12] was 0.008 to 0.06 µg/mL and the “time-kill kinetics outcome (bactericidal = ≥3 log reduction in CFU per mL)” value [13] was “bactericidal at 8×MIC at 6, 24 and 48 hr; at 4×MIC at 24 and 48 hr; and at 2×MIC at 24 hr with rebound growth at 48 hr”. For the same molecule, the “CLSI QC range (MIC)” value [14] was “(0.008-0.06)^1 μg/mL”.
